This passage reports IC50 results from patent US20170152258A9, “Substituted Pyridopyrazines as Syk Inhibitors” (HUTCHISON MEDIPHARMA LIMITED, priority 2012, published 2017).

This test concerns the target Syk kinase (Homo sapiens, UniProt P43405). The experiment in a line: SYK Enzymatic Assay (Z-LYTE Tyr 2 peptide). Type of test: biochemical. The settings on record: 8 concentrations 1 μM down to 0.0003 μM. As to the method: Syk kinase assay are performed in vitro using Kit-Tyr 2 Peptide (Invitrogen, Cat. No. PV3191) and in a 384-well assay plate. […] The 384-well assay plate (Corning, Cat. No. 3575) is mixed and incubated at room temperature for 1 hour. 10 μL of the Development Solution (prepared by diluting Development Reagent A (Cat. No. PV3297) to 1/32 with Development Buffer (Cat. No. PV3127)) is then added to each well, mixed and incubated at room temperature for another 1 hour. The reactions are then stopped by adding 10 μL of the Stop Reagent (Invitrogen, Cat. No. PV3094), and the plate is read with Wallac 1420 VICTOR^3 Multilabel Counter (PerkinElmer™) at 445 nm and 520 nm fluorescence. All compounds are tested at 8 concentrations (1 μM down to 0.0003 μM) using a 1:3 serial dilution scheme.
For `NC(=O)N1CCO[C@H](COc2nc(-c3ccc4[nH]ncc4c3)cc3nccnc23)C1` [Cmpd 242], 111 nM corresponded to half-maximal inhibition (IC50).
With `OC1CCC(Oc2nc(-c3ccc(N4CCOCC4)cc3)cc3nccnc23)CC1` (centres unmarked) [Compound 1, 4-(7-(4-morpholinophenyl)pyrido[4,3-b]pyrazin-5-yloxy)cyclohexanol], the IC50 (usually the concentration at which inhibition is half-maximal) is 270 nM.
The same measure for `c1cnc2c(OCCc3cn[nH]c3)nc(-c3ccc(N4CCOCC4)cc3)cc2n1` [Compound 2, 4-(4-(5-(2-(1H-pyrazol-4-yl)ethoxy)pyrido[3,4-b]pyrazin-7-yl)phenyl)morpholine]: 552 nM.
The same measure for `NC(=O)c1ccc(Oc2nc(-c3ccc(N4CCOCC4)cc3)cc3nccnc23)cc1` [Compound 3, 4-(7-(4-morpholinophenyl)pyrido[4,3-b]pyrazin-5-yloxy)benzamide]: 459 nM; for `O=C1CCC(COc2nc(-c3ccc(N4CCOCC4)cc3)cc3nccnc23)CN1` (centres unmarked) [Compound 4, 5-(((7-(4-morpholinophenyl)pyrido[3,4-b]pyrazin-5-yl)oxy)methyl)piperidin-2-one]: 160 nM.
Take `CN1CCN(c2ccc(-c3cc4nccnc4c(OCC4CCC(=O)NC4)n3)cc2)CC1` (centres unmarked) [Compound 5]: the 50% inhibitory concentration (IC50) stood at 172 nM.
The value for `CS(=O)(=O)N1CCO[C@H](COc2nc(-c3ccc(C4CCNCC4)cc3)cc3nccnc23)C1` [Compound 10, (S)-4-(methylsulfonyl)-2-(((7-(4-(piperidin-4-yl)phenyl)pyrido[3,4-b]pyrazin-5-yl)oxy)methyl)morpholine] was 18 nM.
Compound `CS(=O)(=O)N1CCO[C@H](COc2nc(-c3ccc(OC(F)F)cc3)cc3nccnc23)C1` [Compound 34] displayed an IC50 of 227 nM.
The same measure for `COc1ccc(-c2cc3nccnc3c(OC[C@@H]3CN(S(C)(=O)=O)CCO3)n2)cc1F` [Compound 35]: 131 nM.
The value for `CS(=O)(=O)N1CCO[C@H](COc2nc(-c3ccc(N4CCCC4)cc3)cc3nccnc23)C1` [Compound 37] was 40 nM; that for `CS(=O)(=O)N1CCO[C@H](COc2nc(-c3ccc(Cl)cc3)cc3nccnc23)C1` [Compound 40] was 338 nM; that for `Cc1ccc(-c2cc3nccnc3c(OC[C@@H]3CN(S(C)(=O)=O)CCO3)n2)cc1` [Compound 41] was 138 nM.
Consider `CS(=O)(=O)N1CCO[C@H](COc2nc(-c3cnn(C4CCOCC4)c3)cc3nccnc23)C1` [Compound 42], for which half-maximal inhibition (IC50) was put at 139 nM.
The value for `CS(=O)(=O)N1CCO[C@H](COc2nc(-c3ccc(F)cc3)cc3nccnc23)C1` [Compound 44] was 324 nM.
The same measure for `CS(=O)(=O)N1CCO[C@H](COc2nc(-c3ccc(C#N)cc3)cc3nccnc23)C1` [Compound 45]: 846 nM; for `Cn1cc(-c2cc3nccnc3c(OC[C@@H]3CN(S(C)(=O)=O)CCO3)n2)cn1` [Compound 46]: 192 nM; for `CNc1ccc(-c2cc3nccnc3c(OC[C@@H]3CN(C(C)=O)CCO3)n2)cc1` [Compound 47]: 122 nM.
The same measure for `CN(C)S(=O)(=O)N1CCO[C@H](COc2nc(-c3ccc(N4CCOCC4)cc3)cc3nccnc23)C1` [Compound 56]: 121 nM.
`CN(C)c1ccc(-c2cc3nccnc3c(OC[C@@H]3CN(C(=O)CCc4cccnc4)CCO3)n2)cc1` [Compound 79] registered an IC50 of 231 nM.
The value for `CN(C)c1ccc(-c2cc3nccnc3c(OC[C@@H]3CN(C(=O)Cc4cccnc4)CCO3)n2)cc1` [Compound 80] was 107 nM.
`CN(C)c1ccc(-c2cc3nccnc3c(OC[C@@H]3CN(C(=O)CCCC#N)CCO3)n2)cc1` [Compound 81] gave a 50% inhibitory concentration (IC50) of 166 nM.
The same measure for `CC(C)S(=O)(=O)N1CCO[C@H](COc2nc(-c3ccc(N4CCOCC4)cc3)cc3nccnc23)C1` [Compound 82]: 113 nM; for `CN(C)c1ccc(-c2cc3nccnc3c(OC[C@@H]3CN(C(=O)CCn4ccnc4)CCO3)n2)cc1` [Compound 85]: 283 nM.
The value for `CN(C)c1ccc(-c2cc3nccnc3c(OC[C@@H]3CN(S(=O)(=O)C4CCCCC4)CCO3)n2)cc1` [Compound 91] was 474 nM.
The same measure for `CN(C)c1ccc(-c2cc3nccnc3c(OC[C@@H]3CN(S(=O)(=O)Cc4cccc(F)c4)CCO3)n2)cc1` [Compound 93]: 808 nM; for `CN(C)c1ccc(-c2cc3nccnc3c(OC[C@@H]3CN(C(=O)C4CC4(F)F)CCO3)n2)cc1` (some centres unmarked) [Compound 96]: 134 nM; for `CN(C)c1ccc(-c2cc3nccnc3c(OC[C@@H]3CN(C(=O)C4(C#N)CC4)CCO3)n2)cc1` [Compound 97]: 144 nM.
`CN(C)c1ccc(-c2cc3nccnc3c(O[C@H]3CCOC3)n2)cc1` [Compound 106] showed an IC50 of 130 nM.
The value for `CN(C)c1ccc(-c2cc3nccnc3c(OC3CCOCC3)n2)cc1` [Compound 107] was 919 nM; that for `COCCNc1ccc(-c2cc3nccnc3c(OC[C@@H]3CN(C(C)=O)CCO3)n2)cc1` [Compound 114] was 122 nM.
The same measure for `CNS(=O)(=O)CCN1CCO[C@H](COc2nc(-c3ccc(N(C)C)cc3)cc3nccnc23)C1` [Compound 128]: 477 nM; for `CN(C)CCOc1cccc(-c2cc3nccnc3c(OC[C@@H]3CN(S(C)(=O)=O)CCO3)n2)c1` [Compound 130]: 454 nM.
For the compound `COc1ccc(-c2cc3nccnc3c(OC[C@@H]3CN(C(C)=O)CCO3)n2)cc1OC` [Compound 132], the IC50 was found to be 109 nM.
The value for `COc1cc(-c2cc3nccnc3c(OC[C@@H]3CN(C(C)=O)CCO3)n2)ccc1OC(C)C` [Compound 147] was 115 nM.
Compound `CC(=O)N1CCO[C@H](COc2nc(-c3ccc(C(C)C)cc3)cc3nccnc23)C1` [Compound 160] registered an IC50 of 102 nM.
The value for `CC(=O)N1CCO[C@H](COc2nc(-c3ccc(C4CCNCC4)cc3)cc3nccnc23)C1` [Compound 162] was 151 nM; that for `CN(C)c1ccc(-c2cc3nccnc3c(OCC3CCCCO3)n2)cc1` (centres unmarked) [Compound 167] was 405 nM.
Take `CN(C)c1ccc(-c2cc3nccnc3c(OCC3CCCO3)n2)cc1` (centres unmarked) [Compound 168]: the half-inhibitory concentration (IC50) was 211 nM.
The same measure for `CS(=O)(=O)N1CCC(c2ccc(-c3cc4nccnc4c(OCC4CCCCO4)n3)cc2)CC1` (centres unmarked) [Compound 169]: 272 nM; for `CS(=O)(=O)N1CCC(c2ccc(-c3cc4nccnc4c(OCC4CCCO4)n3)cc2)CC1` (centres unmarked) [Compound 170]: 182 nM; for `CC(=O)N1CCO[C@H](COc2nc(-c3ccc4c(c3)CC(=O)N4C)cc3nccnc23)C1` [Compound 171]: 458 nM.
With `CC(=O)N1CCO[C@H](COc2nc(-c3cnc(N(C)C)c(C)c3)cc3nccnc23)C1` [Compound 174], half-maximal inhibition (IC50) was put at 816 nM.
The compound `CS(=O)(=O)N1CCN(c2ccc(-c3cc4nccnc4c(O[C@@H]4CCCOC4)n3)cc2)CC1` [Compound 179] showed an IC50 of 190 nM.
`CS(=O)(=O)N1CCC(c2ccc(-c3cc4nccnc4c(O[C@@H]4CCCOC4)n3)cc2)CC1` [Compound 180] returned an IC50 of 177 nM.
In turn, `CC(=O)N1CCO[C@H](COc2nc(-c3ccc(N4CCNCC4)c(C)c3)cc3nccnc23)C1` [Compound 182] displayed an IC50 of 110 nM.
The value for `CC(C)c1ccc(-c2cc3nccnc3c(OC[C@@H]3CN(S(N)(=O)=O)CCO3)n2)cc1` [Compound 187] was 109 nM; that for `CC(=O)N1CCC(c2ccc(-c3cc4nccnc4c(O[C@@H]4CCCOC4)n3)cc2)CC1` [Compound 191] was 115 nM; that for `Clc1cc(-c2cc3nccnc3c(O[C@@H]3CCOC3)n2)ccc1N1CCOCC1` [Compound 194] was 136 nM.
The value for `CNC(=O)N1CCO[C@H](COc2nc(-c3ccc4[nH]ncc4c3)cc3nccnc23)C1` [Compound 204] was 126 nM; that for `CC(=O)N1CCOC(C(C)Oc2nc(-c3ccc(N(C)C)cc3)cc3nccnc23)C1` (centres unmarked) [Compound 233] was 386 nM; that for `CC(Oc1nc(-c2ccc(N(C)C)cc2)cc2nccnc12)C1CN(C(N)=O)CCO1` (centres unmarked) [Compound 234] was 193 nM.
Turning to `CNC(=O)N1CCOC(C(C)Oc2nc(-c3ccc(N(C)C)cc3)cc3nccnc23)C1` (centres unmarked) [Compound 235], the IC50 is 212 nM.
`CC(Oc1nc(-c2ccc(N(C)C)cc2)cc2nccnc12)C1CN(S(C)(=O)=O)CCO1` (centres unmarked) [Compound 236] yielded an IC50 of 109 nM.
For `CC(Oc1nc(-c2ccc(N(C)C)cc2)cc2nccnc12)C1CN(C(N)=O)CCO1` (centres unmarked) [Compound 238], half-maximal inhibition (IC50) was put at 275 nM.
Take `CNC(=O)N1CCOC(C(C)Oc2nc(-c3ccc(N(C)C)cc3)cc3nccnc23)C1` (centres unmarked) [Compound 239]: half-maximal inhibition (IC50) was put at 451 nM.
The value for `CC(Oc1nc(-c2ccc(N(C)C)cc2)cc2nccnc12)C1CN(S(C)(=O)=O)CCO1` (centres unmarked) [Compound 240] was 262 nM; that for `c1cnc2c(O[C@@H]3CCNC3)nc(-c3ccc(N4CCOCC4)cc3)cc2n1` [Compound 243] was 300 nM; that for `CC(C)(N)c1ccc(-c2cc3nccnc3c(OC[C@@H]3CN(S(C)(=O)=O)CCO3)n2)cc1` [Compound 244] was 136 nM.
On to `CC(=O)N1CCO[C@H](COc2nc(-c3ccc(C(C)(C)N)cc3)cc3nccnc23)C1` [Compound 245], for which inhibition was half-maximal at 449 nM (IC50).
The same measure for `CC(=O)N1CCO[C@H](COc2nc(-c3ccc(C(C)N(C)C)cc3)cc3nccnc23)C1` (some centres unmarked) [Compound 271]: 741 nM; for `CN(C)CCc1ccc(-c2cc3nccnc3c(OC[C@@H]3CN(S(C)(=O)=O)CCO3)n2)cc1` [Compound 272]: 178 nM; for `N#CC1(c2ccc(-c3cc4nccnc4c(OC[C@@H]4CN(C(N)=O)CCO4)n3)cc2)CC1` [Compound 275]: 76 nM.
